Source: US6482822B1, “N-(iminomethyl)amines derivatives, their preparation, their use as medicines and compositions containing them” (Societe de Conseils de Recherches et d'Applications …, priority 1998, dated 2002)
Where a name gives a salt, the structure may show the parent alone.

- melting point: > 250 °C
SMILES: NC(=Nc1ccc(CCCC(=O)Nc2ccc3[nH]c4ccccc4c3c2)cc1)c1cccs1 (as salt: hydrochloride) [Example 18, 4-(4-{[Amino(2-thienyl)methylidene]amino}phenyl)-N-(9H-carbazol-3-yl)butanamide Hydrochloride]
